Experimental findings from patent publication US6083677A, “Photographic element containing yellow dye-forming photographic coupler” (Eastman Kodak Company, priority 1998, dated 2000) are described below.

The structures appear in SMILES notation.

The nature of data set [1]: Spectrophotometric response of dyes in dilute acetonitrile solution. The format is physicochemical. The conditions noted are these: for Extinction: in M-1 cm-1 (unit assumed). An excerpt: As mentioned previously, many characteristics of a photographic image depend upon the spectral response of the dyes forming that image. The greater the molar extinction of an image-forming dye the less silver is needed to produce that dye; lower silver laydowns may lead to sharper photographic images. The color of a dye depends upon the position of its maximum light absorption (λ-max). With yellow dyes, the deeper (more bathochromic) the λmax of the dye the more orange the color of the dye. Orange dyes cannot be employed to effectively reproduce bright lemon yellows, thus lighter yellow dyes arc preferred for better color reproduction. Finally, the ideal yellow dye absorbs only light in the blue portion of the visible spectrum; yellow dyes that absorb substantial amounts of green light appear desaturated and therefore yield poorer color reproduction. The bathochromic (long wavelength side) one-half bandwidth (B1/2BW) is a good measure of the degree of unwanted absorption of a yellow dye. The B1/2BW is the distance on the long wavelength side of the dye's spectral response curve, in nanometers, from the λmax to the wavelength of 1/2 the maximum absorption. The smaller the B1/2BW distance, the more sharp-cutting is the spectral response of a dye and the better the color reproduction available from the dye.
^a. Spectrophotometric data derived from dilute acetonitrile solution
of chromatographically homogenous dyes; see Table 3 for invention dye

The nature of data set [2]: Accelerated solution test of acid hydrolysis of yellow dyes (HPLC). The format is physicochemical. Also on record: kobs rate of hydrolysis: unit not given here. As to conditions: 1 mM dye in 6% Triton X100, pH 2.0, phosphate buffer, 50° C. The method, then: The hydrolytic stability or acid catalyzed decomposition of yellow azomethine dyes is an important pathway in the degradation of photographic images. It is believed that the stability of yellow dyes toward acidic hydrolysis is predictive of their stability in color photographic images.
The rates of hydrolysis of a variety of dyes have been measured using an accelerated solution test format. The dyes (1.0 mM dye in 6% Triton X-100®) in buffered acidic solutions (pH=2.0, μ=0.2, phosphate buffer) were held at 50° C. The rates of dye destruction were monitored using standard HPLC procedures.
^a. 1 mM dye in 6% Triton X100 ® (60 g/l octylphenoxy
polyethoxyethanols, Avg M.W. = 646) solution in pH 2.0, […],
phosphate buffer at 50° C.

Consider `CCCCc1ccc(NC(=O)C(=Nc2ccc(N(CC)CCNS(C)(=O)=O)cc2C)C(=O)c2c(-c3ccccc3)oc3ccccc23)cc1` [Coupler D-13], for which, in data set [1], the “B1/2BW (bathochromic one-half bandwidth)” value is 47 nm, the λmax was determined as 444 nm and the Extinction is reported as 13,400.

Take `CCCCc1ccc(NC(=O)C(=Nc2ccc(N(CC)CCNS(C)(=O)=O)cc2C)C(=O)c2c3c(n(C)c2-c2ccccc2)CCCC3)cc1` [Coupler D-9]: in data set [1], the “B1/2BW (bathochromic one-half bandwidth)” value is 34 nm, the λmax turned out to be 422 nm and the Extinction is on record as 19,300.

In the case of `CCCCc1ccc(NC(=O)C(=Nc2ccc(N(CC)CCNS(C)(=O)=O)cc2C)C(=O)C(C)(C)C)cc1` [Cmp-7, reference compound], in data set [1], the “B1/2BW (bathochromic one-half bandwidth)” value is on record as 42 nm, the λmax is 428 nm and the Extinction was 11,800.

As for `CCCCCCCCCCCCNS(=O)(=O)c1ccc(NC(=O)C(=Nc2ccc(N(CC)CCNS(C)(=O)=O)cc2C)C(=O)c2c(-c3ccccc3)n(C)c3ccccc23)c(Cl)c1` [Coupler D-17], in data set [2], the “kobs rate of hydrolysis” value was determined as 0.31 and the “t1/2 - time for 1/2 the dye to hydrolyze” value amounted to 610 h.

For the compound `CCCCc1ccc(NC(=O)C(=Nc2ccc(N(CC)CCNS(C)(=O)=O)cc2C)C(=O)c2c(C)n(C)c3ccccc23)cc1` [Coupler D-4], in data set [1], the “B1/2BW (bathochromic one-half bandwidth)” value is recorded as 37 nm, the λmax is 428 nm and the Extinction is reported as 16,200.

Regarding `CCCCCCCCCCCCCCCCOC(=O)c1ccc(Cl)c(NC(=O)C(=Nc2ccc(N(CC)CCNS(C)(=O)=O)cc2C)C(=O)c2c(C3CCCCC3)n(C)c3ccccc23)c1` [Coupler D-19], in data set [2], the “kobs rate of hydrolysis” value came out at 1.91 and the “t1/2 - time for 1/2 the dye to hydrolyze” value came out at 101 h.

`CCCCc1ccc(NC(=O)C(=Nc2ccc(N(CC)CCNS(C)(=O)=O)cc2C)C(=O)c2c(-c3ccccc3)n(-c3ccccc3)c3ccccc23)cc1` [Coupler D-8]: in data set [1], the “B1/2BW (bathochromic one-half bandwidth)” value was determined as 33 nm, the λmax stood at 426 nm and the Extinction is recorded as 16,600.

`CCCCc1ccc(NC(=O)C(=Nc2ccc(N(CC)CCNS(C)(=O)=O)cc2C)C(=O)c2ccn(-c3ccccc3)c2C)cc1` [Cmp-4, reference compound]: in data set [1], the “B1/2BW (bathochromic one-half bandwidth)” value is on record as 40 nm, the λmax worked out at 434 nm and the Extinction was 12,600.

On to `CCCCc1ccc(NC(=O)C(=Nc2ccc(N(CC)CCNS(C)(=O)=O)cc2C)C(=O)c2c(C)[nH]c3ccccc23)cc1` [Coupler D-2], for which, in data set [1], the “B1/2BW (bathochromic one-half bandwidth)” value is 37 nm, the λmax is listed as 426 nm and the Extinction is reported as 10,000.

For the compound `CCCCc1ccc(NC(=O)C(=Nc2ccc(N(CC)CCNS(C)(=O)=O)cc2C)C(=O)c2cn(C)c3ccccc23)cc1` [Coupler D-3], in data set [1], the “B1/2BW (bathochromic one-half bandwidth)” value amounted to 39 nm, the λmax amounted to 428 nm and the Extinction is reported as 13,500.

Take `CCCCc1ccc(NC(=O)C(=Nc2ccc(N(CC)CCNS(C)(=O)=O)cc2C)C(=O)c2c(-c3ccccc3)c3ccccc3n2C)cc1` [Coupler D-14]: in data set [1], the “B1/2BW (bathochromic one-half bandwidth)” value was determined as 46 nm, the λmax was found to be 438 nm and the Extinction is on record as 11,900.

Regarding `CCCCCCCCCCCCn1c(-c2ccccc2)c(C(=O)C(=Nc2ccc(N(CC)CCNS(C)(=O)=O)cc2C)C(=O)Nc2ccc(S(C)(=O)=O)cc2Cl)c2ccccc21` [Coupler D-16], in data set [2], the “kobs rate of hydrolysis” value was found to be 0.38 and the “t1/2 - time for 1/2 the dye to hydrolyze” value came out at 500 h.

With `CCCCCCCCCCCCCCCCOC(=O)c1ccc(Cl)c(NC(=O)C(=Nc2ccc(N(CC)CCNS(C)(=O)=O)cc2C)C(=O)c2c(C)n(C)c3ccccc23)c1` [Coupler D-18], in data set [2], the “kobs rate of hydrolysis” value stood at 9.63 and the “t1/2 - time for 1/2 the dye to hydrolyze” value came to 20 h.

For the compound `CCCCc1ccc(NC(=O)C(=Nc2ccc(N(CC)CCNS(C)(=O)=O)cc2C)C(=O)c2c(C3CCCCC3)n(C)c3ccccc23)cc1` [Coupler D-5], in data set [1], the “B1/2BW (bathochromic one-half bandwidth)” value is 37 nm, the λmax came out at 428 nm and the Extinction is reported as 16,800.

Consider `CCCCCCCCCCCCS(=O)(=O)c1ccc(NC(=O)C(=Nc2ccc(N(CC)CCNS(C)(=O)=O)cc2C)C(=O)c2c(-c3ccccc3)n(C)c3ccccc23)c(Cl)c1` [Coupler D-15], for which, in data set [2], the “kobs rate of hydrolysis” value is recorded as 0.17 and the “t1/2 - time for 1/2 the dye to hydrolyze” value is 1,150 hr.

Consider `CCCCc1ccc(NC(=O)C(=Nc2ccc(N(CC)CCNS(C)(=O)=O)cc2C)C(=O)c2cn(-c3ccccc3)cc2C)cc1` [Cmp-2, reference compound], for which, in data set [1], the “B1/2BW (bathochromic one-half bandwidth)” value is 40 nm, the λmax came to 428 nm and the Extinction is given as 13,900.

In the case of `CCCCc1ccc(NC(=O)C(=Nc2ccc(N(CC)CCNS(C)(=O)=O)cc2C)C(=O)c2ccn(-c3ccccc3)c2)cc1` [Cmp-1, reference compound], in data set [1], the “B1/2BW (bathochromic one-half bandwidth)” value is reported as 42 nm, the λmax is listed as 430 nm and the Extinction is given as 12,800.

For the compound `CCCCc1ccc(NC(=O)C(=Nc2ccc(N(CC)CCNS(C)(=O)=O)cc2C)C(=O)c2c3n(c4ccccc24)CCCC3)cc1` [Coupler D-6], in data set [1], the “B1/2BW (bathochromic one-half bandwidth)” value worked out at 38 nm, the λmax is 426 nm and the Extinction is 17,300.

Consider `CCCCc1ccc(NC(=O)C(=Nc2ccc(N(CC)CCNS(C)(=O)=O)cc2C)C(=O)c2cccn2-c2ccccc2)cc1` [Cmp-3, reference compound], for which, in data set [1], the “B1/2BW (bathochromic one-half bandwidth)” value worked out at 40 nm, the λmax is recorded as 426 nm and the Extinction was 13,700.

For `CCCCCCCCCCCCOC(=O)c1ccc(Cl)c(NC(=O)C(=Nc2ccc(N(CC)CCNS(C)(=O)=O)cc2C)C(=O)C(C)(C)C)c1` [Cmp-10, reference compound], in data set [2], the “kobs rate of hydrolysis” value is given as 5.57 and the “t1/2 - time for 1/2 the dye to hydrolyze” value turned out to be 35 h.

Consider `CCCCc1ccc(NC(=O)C(=Nc2ccc(N(CC)CCNS(C)(=O)=O)cc2C)C(=O)c2c(-c3ccccc3)n(C)c3ccc(C#N)cc23)cc1` [Coupler D-12], for which, in data set [1], the “B1/2BW (bathochromic one-half bandwidth)” value was found to be 33 nm, the λmax is 430 nm and the Extinction was 20,100.

With `CCCCCCCCCCCCCCCCS(=O)(=O)Nc1ccc(Cl)c(NC(=O)C(=Nc2ccc(N(CC)CCNS(C)(=O)=O)cc2C)C(=O)C(C)(C)C)c1` [Cmp-11, reference compound], in data set [2], the “kobs rate of hydrolysis” value amounted to 12.1 and the “t1/2 - time for 1/2 the dye to hydrolyze” value was found to be 16 h.

With `CCCCCCCCCCCCCCCCCCOc1ccc(S(=O)(=O)Nc2ccccc2Cl)cc1NC(=O)C(=Nc1ccc(N(CC)CCNS(C)(=O)=O)cc1C)C(=O)N1CCc2ccccc21` [Cmp-6, reference compound], in data set [2], the “kobs rate of hydrolysis” value is on record as 2.48 and the “t1/2 - time for 1/2 the dye to hydrolyze” value came out at 78 h.

For the compound `CCCCc1ccc(NC(=O)C(=Nc2ccc(N(CC)CCNS(C)(=O)=O)cc2C)C(=O)c2c(-c3ccccc3)n(C)c3ccc(OC)cc23)cc1` [Coupler D-11], in data set [1], the “B1/2BW (bathochromic one-half bandwidth)” value worked out at 33 nm, the λmax worked out at 426 nm and the Extinction is recorded as 21,300.

Regarding `CCCCc1ccc(NC(=O)C(=Nc2ccc(N(CC)CCNS(C)(=O)=O)cc2C)C(=O)c2c3c(n(C)c2-c2ccccc2)CCC3)cc1` [Coupler D-10], in data set [1], the “B1/2BW (bathochromic one-half bandwidth)” value was found to be 35 nm, the λmax is 424 nm and the Extinction was 17,700.

Regarding `CCCCc1ccc(NC(=O)C(=Nc2ccc(N(CC)CCNS(C)(=O)=O)cc2C)C(=O)c2c(-c3ccccc3)[nH]c3ccccc23)cc1` [Coupler D-7], in data set [1], the “B1/2BW (bathochromic one-half bandwidth)” value stood at 35 nm, the λmax is reported as 430 nm and the Extinction is recorded as 14,100.

As for `CCCCc1ccc(NC(=O)C(=Nc2ccc(N(CC)CCNS(C)(=O)=O)cc2C)C(=O)c2c(-c3ccccc3)n(C)c3ccccc23)cc1` [Coupler D-1], in data set [1], the “B1/2BW (bathochromic one-half bandwidth)” value worked out at 32 nm, the λmax amounted to 426 nm and the Extinction was 19,700.
